Source: patent publication US5292887A, “Substituted imidazole derivatives and their preparation and use” (priority 1988, dated 1994)

How the values were obtained:
[1] = system: isolated rat pancreas (postsynaptic α2-adrenoceptors); assay: Potentiation of insulin release from isolated perfused pancreas; set-up: species or system rat (Sprague-Dawley); conditions: 1 × 10^-6 M, 11 mM glucose; for Insulin in the perfusate, -5 min: before compound addition
Method: 3. Potentiation of insulin release from isolated pancreas
Samples for determination of insulin concentration in the perfusate were collected before and during 30 min after adding the studied compounds+glucose. Insulin was measured by a RIA-kit (NOVO).

[2] = target: T1, α1-adrenoceptor (Rattus norvegicus, UniProt P43140); assay: α1-adrenoceptor antagonism, phenylephrine-induced contraction of isolated anococcygeus muscle; conditions: vs phenylephrine, read-out: α1-antagonism (pA2 vs phenylephrine) (converted)
T1 sequence (P43140 1-466): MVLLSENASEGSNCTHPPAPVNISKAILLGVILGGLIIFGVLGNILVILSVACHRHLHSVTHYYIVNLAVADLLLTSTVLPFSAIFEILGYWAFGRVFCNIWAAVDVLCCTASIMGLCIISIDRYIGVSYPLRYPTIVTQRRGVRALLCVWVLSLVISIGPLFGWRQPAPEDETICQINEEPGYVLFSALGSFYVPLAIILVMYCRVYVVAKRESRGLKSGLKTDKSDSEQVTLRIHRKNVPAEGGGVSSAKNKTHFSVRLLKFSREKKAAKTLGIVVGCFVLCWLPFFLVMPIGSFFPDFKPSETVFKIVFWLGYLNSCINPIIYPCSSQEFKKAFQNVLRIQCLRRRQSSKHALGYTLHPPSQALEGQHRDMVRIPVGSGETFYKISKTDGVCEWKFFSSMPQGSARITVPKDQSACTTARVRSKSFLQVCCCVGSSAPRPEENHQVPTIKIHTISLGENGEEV
Method: 2. α1 -adrenoceptor antagonism
To obtain information also on the selectivity of the antagonist between α1 - and α2 -receptors, its ability to inhibit α1 -receptors was determined by means of isolated anococcygeus muscle (rat). The reference substances were now phenylephrine, a known α1 -agonist, and prazosin, a known α1 -antagonist. To determine α1 -antagonism, muscular contraction was induced by phenylephrine and the pA2 value of the studied compound was determined (Arunlakshana & Schild, Br. J. Pharmacol. 14, 48-62, 1959).

[3] = target: T2, α2-adrenoceptor (Rattus norvegicus, UniProt P22909); assay: Duration of the α2-blocking action (time for antagonism of detomidine mydriasis to fall by half, oral); type: in vivo; conditions: oral at equipotent doses, time taken for antagonism of 0,1 mg/kg detomidine mydriasis to fall by half
T2 construct: In anaesthetized rat, a standard dose of detomidine was administered intravenously; from tissue; host or cells: whole anaesthetized rat (pupil response, in vivo)
T2 sequence (P22909 1-465): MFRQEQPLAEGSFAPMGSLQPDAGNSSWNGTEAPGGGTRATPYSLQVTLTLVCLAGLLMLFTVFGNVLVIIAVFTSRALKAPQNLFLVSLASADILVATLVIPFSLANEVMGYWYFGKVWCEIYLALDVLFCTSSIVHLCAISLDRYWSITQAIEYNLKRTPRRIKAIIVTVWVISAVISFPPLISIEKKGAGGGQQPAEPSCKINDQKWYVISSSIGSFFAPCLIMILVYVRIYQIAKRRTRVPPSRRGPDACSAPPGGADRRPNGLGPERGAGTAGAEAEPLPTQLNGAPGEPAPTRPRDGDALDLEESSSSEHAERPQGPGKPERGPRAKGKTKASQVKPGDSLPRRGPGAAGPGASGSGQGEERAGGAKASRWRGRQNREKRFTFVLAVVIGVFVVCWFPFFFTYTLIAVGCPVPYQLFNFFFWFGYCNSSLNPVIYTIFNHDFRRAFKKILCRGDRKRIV
Method: It is known that in the rat α2 -agonists induce dilatation of the pupil (mydriasis) which effect is transmitted via postsynaptic α2 -receptors. In anaesthetized rat, a standard dose of detomidine was administered intravenously. Thereafter increasing doses of the studied antagonist were injected intravenously and the reversal of detomidine-induced mydriasis was followed. The ED50 value of the antagonist, i.e. the dose producing a 50 per cent reversal, was determined.
The duration of the α2 -blocking action of the compounds was determined as follows: the antagonists were administered orally at eqvipotent doses to groups of 4 rats 1, 2, 4, 7 or 16 hours before induction of anaesthesia and challenge with cumulative i.v. dosing of detomidine. By calculating the percentage antagonism of the mydriatic effect of 0,1 mg/kg detomidine for each pretreatment group, a time-effect relationship was established. This in turn permitted the measurement of the time taken for the antagonist effect to fall by half.

[4] = target: T2, α2-adrenoceptor; assay: Reversal of detomidine-induced mydriasis in anaesthetized rat (α2-adrenoceptor antagonism); type: in vivo; conditions: dose producing 50 per cent reversal of detomidine-induced mydriasis; for ED50: iv

SMILES	Insulin in the perfusate, +1 min [1] [ng/mL]	Insulin in the perfusate, +10 min [1] [ng/mL]	Insulin in the perfusate, +20 min [1] [ng/mL]	Insulin in the perfusate, +30 min [1] [ng/mL]	Insulin in the perfusate, -5 min [1] [ng/mL]	Kb [2] [µM]	Duration of α2-antagonism [3] [h]	ED50 [4] [mg/kg]	α2-antagonism (ED50 vs detomidine) ([4]; i.v.) [mg/kg]
CCC1(c2cnc[nH]2)Cc2ccccc2C1 [atipamezole, reference compound]	5.0	3.0	6.3	15.1	< 0.1	> 10	1.0		
CCC1(c2cn(C)cn2)Cc2ccccc2C1 [compound 1, 4-(2-ethyl-2,3-dihydro-1H-inden-2-yl)-1-methyl-1H-imidazole]						7.94	2.0	0.3	
CCn1cnc(C2(CC)Cc3ccccc3C2)c1 [compound 2, 1-ethyl-4-(2-ethyl-2,3-dihydro-1H-inden-2-yl)-1H-imidazole]						6.31		0.2	
CCCn1cnc(C2(CC)Cc3ccccc3C2)c1 [compound 3, 4-(2-ethyl-2,3-dihydro-1H-inden-2-yl)-1-n-propyl-1H-imidazole]						6.31		0.3	
CCC1(c2cn(Cc3ccccc3)cn2)Cc2ccccc2C1 [compound 4, 1-benzyl-4-(2-ethyl-2,3-dihydro-1H-inden-2-yl)-1H-imidazole]						1		2	
CCC1(c2cn(C)cn2)Cc2ccccc2C1=O (stereo not drawn) [compound 5, 2-ethyl-2-(1-methyl-1H-imidazol-4-yl)-1-indanone]						> 10	11.0	0.1	
OCC1(c2c[nH]cn2)Cc2ccccc2C1 [compound 6, [2,3-dihydro-2-(1H-imidazol-4-yl)-1H-inden-2-yl]methanol]						> 10		0.2	
COCC1(c2cn(C)cn2)Cc2ccccc2C1 [compound 7, 4-(2,3-dihydro-2-methoxymethyl-1H-inden-2-yl)-1-methyl-1H-imidazole]	26.0	11.5	15.9	22.0	< 0.1	> 10	7.0	0.3	
CCCC1(c2cn(CC)cn2)Cc2ccccc2C1 [compound 8, 1-ethyl-4-(2,3-dihydro-2-n-propyl-1H-inden-2-yl)-1H-imidazole]						> 10		0.3	
CCCC1(c2cn(C)cn2)Cc2ccccc2C1 [compound 9, 4-(2,3-dihydro-2-n-propyl-1H-inden-2-yl)-1-methyl-1H-imidazole]						> 10		0.3	
CCn1cnc(C2(CO)Cc3ccccc3C2)c1 [compound 10, [2-(1-ethyl-1H-imidazol-4-yl)-2,3-dihydro-1H-inden-2-yl]methanol]						> 10	7.0	0.3	
CCn1cnc(C2(COC)Cc3ccccc3C2)c1 [compound 11, 1-ethyl-4-(2,3-dihydro-2-methoxymethyl-1H-inden-2-yl)-1H-imidazole]						> 10	7.0	0.1	
CCn1cnc(C2(CC)Cc3ccccc3C2=O)c1 (stereo not drawn) [compound 12, 2-ethyl-2-(1-ethyl-1H-imidazol-4-yl)-1-indanone]						> 10	16.0	0.2	
c1ccc2c(c1)OCC(C1=NCCN1)O2 (stereo not drawn) [idazoxan, reference compound]						5.01	< 1		0.02
